Data published in PubChem BioAssay (NCI).
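96-well plates; 48 h exposure; 5 concentrations. Endpoints by linear interpolation between flanking doses. Not reached: highest tested concentration assigned. Here, GI50 denotes the concentration required for 50% inhibition of growth. TGI: total growth inhibition.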

What was measured:
Test in all cases: growth of human tumour cells (NCI), 48 h
[1] = tested on: T-47D breast
[2] = tested on: MDA-MB-435
[3] = tested on: CAKI-1 renal
[4] = tested on: MDA-N
[5] = tested on: NCI-H226 lung
[6] = tested on: DU-145 prostate
[7] = tested on: NCI/ADR-RES ovarian
[8] = tested on: HS 578T breast
[9] = tested on: SR leukemia
[10] = tested on: 786-0 renal
[11] = tested on: NCI-H522 lung
[12] = tested on: A498 renal

Row | SMILES | TGI [1] [µM] | TGI [2] [µM] | TGI [3] [µM] | TGI [4] [µM] | TGI [5] [µM] | TGI [6] [µM] | TGI [7] [µM] | TGI [8] [µM] | TGI [9] [µM] | TGI [10] [µM] | TGI [11] [µM] | TGI [12] [µM] | GI50 [11] [µM] | GI50 [2] [µM] | GI50 [3] [µM] | GI50 [12] [µM] | GI50 [8] [µM] | GI50 [6] [µM] | GI50 [7] [µM]
1 | Cc1ccc(S(=O)(=O)N2c3ccccc3[C@H]3CCc4c([nH]c5ccccc45)[C@H]32)cc1 | > 100 | > 100 | > 100 | > 100 | > 100 | > 100 | > 100 |  |  |  |  |  |  |  |  |  |  |  | 
2 | CC(C)OC(=O)Nc1cccc(Cl)c1 | > 100 | > 100 | > 100 | > 100 | > 100 | > 100 | > 100 | > 100 | > 100 | > 100 |  |  |  |  |  |  |  |  | 
3 | CC1=C(C#N)C23C(=O)c4ccccc4C(O)=C2C(=O)C=CC3(O)N1 (centres undefined) | > 100 | 9.37 | 23.3 | 3.95 | 32 | 7.69 | > 100 |  | 1.5 | 28.1 | 4.81 | 37.6 |  |  |  |  |  |  | 
4 | CO[C@H]1ON=C(c2c(C)cc(C)cc2C)[C@@H]1C1(c2ccccc2)ON=C(c2c(C)cc(C)cc2C)O1 (some centres undefined) |  |  |  |  |  |  |  |  | > 100 |  | > 100 |  |  |  |  |  |  |  | 
5 | CN1C(=O)CN2C(Cl)(Cl)C2(c2ccccc2F)c2cc([N+](=O)[O-])ccc21 (centres undefined) |  |  | > 100 |  | 92.5 |  |  |  | > 100 |  | > 100 |  |  |  |  |  |  |  | 
6 | Cn1cc(-c2csc(-c3cn(C)c4ccc(Br)cc34)n2)c2cnccc21 |  | 3.22 | 3.22 |  |  | 3.17 | 3.91 | 4.73 |  |  | 3.44 | 3.67 | 1.76 | 1.76 | 1.77 | 1.78 | 2.23 | 1.74 | 2.07
7 | COc1ccc(CC2c3cc(OC)c(OC)c(OC)c3CC[N+]2(C)C)cc1Oc1ccc(CC2c3cc4c(c(OC)c3CC[N+]2(C)C)OCO4)cc1 (centres undefined) | > 100 | > 100 | > 100 |  | > 100 | > 100 | > 100 | > 100 | > 100 | > 100 | > 100 | > 100 |  |  |  |  |  |  | 
8 | CC(=O)OCc1ccc2oc(=O)c(C(=O)Oc3cccc(Cl)c3)cc2c1 | 41 | > 100 | > 100 | > 100 | > 100 | > 100 | > 100 | > 100 | > 100 | > 100 | > 100 |  |  |  |  |  |  |  | 
9 | CCCCC(C(=O)N/N=C/c1ccc([N+](=O)[O-])o1)C(=O)N/N=C/c1ccc([N+](=O)[O-])o1 | 7.69 | 25.2 | 14.7 | 16.1 | 5.1 | 42.9 | 5.91 | 5.57 |  | 5.5 |  | 41 |  |  |  |  |  |  | 
10 | [O-]c1c[n+](CCCC[n+]2cc([O-])on2)no1 | > 100 | > 100 | > 100 | > 100 |  | > 100 | > 100 | > 100 |  | > 100 | > 100 | > 100 |  |  |  |  |  |  | 
11 | c1ccc(CSC2(SCc3ccccc3)CCCC2)cc1 | > 10 | > 10 | > 10 | > 10 | > 10 | > 10 | > 10 | > 10 | > 10 |  | > 10 | > 10 |  |  |  |  |  |  | 
12 | c1ccc(CSc2ccccc2CN2CCN(Cc3ccccc3SCc3ccccc3)CCN(Cc3ccccc3SCc3ccccc3)CC2)cc1 | 4.81 | 12 | 11.3 | 3.02 | 3.46 | 12.3 | 6.85 |  |  | 3.01 | 1.76 | 5.81 |  |  |  |  |  |  | 
13 | C1CCC(OCc2nnn3c2CCC3)OC1 (centres undefined) |  |  |  |  |  |  |  |  | > 100 |  | > 100 |  |  |  |  |  |  |  | 
14 | NC(=O)c1ccc(NS(=O)(=O)c2ccc(N)cc2)nc1 | > 100 | > 100 | > 100 | > 100 | > 100 | > 100 | > 100 | > 100 |  | > 100 |  | > 100 |  |  |  |  |  |  | 
15 | COC(=O)C(=O)C(C(=O)C1=NS(=O)(=O)c2cc(S(N)(=O)=O)c(Cl)cc2N1)c1nc2ccc(C(=O)c3ccccc3)cc2[nH]c1=O (centres undefined) |  |  | > 100 |  | > 100 |  |  |  | > 100 | > 100 | > 100 | > 100 |  |  |  |  |  |  | 
16 | Nc1nc(Cl)cc(NCCCNc2cc(Cl)nc(N)n2)n1 |  |  |  |  | > 100 |  |  |  | > 100 |  |  | > 100 |  |  |  |  |  |  | 
17 | CCN1CCN(c2nc3ccccc3nc2C(=O)c2ccc(OC)cc2)CC1 | > 100 | > 100 | > 100 | > 100 |  | > 100 | > 100 | > 100 | 93.4 | 64.8 | > 100 | > 100 |  |  |  |  |  |  | 
18 | CS/C(C#N)=C(\C#N)SC | 26.2 | 40.5 | 22.3 |  | 5.92 | 40.7 | > 100 | > 100 | 5.43 | > 100 | 3.75 | 47.7 |  |  |  |  |  |  | 
19 | C=CCc1c(C)nc(C)nc1N/N=C/C=C/c1ccccc1 | 28 | > 100 | > 100 | > 100 | > 100 |  | 64.8 | > 100 | 57.3 | > 100 | > 100 | 65.2 |  |  |  |  |  |  | 
20 | CNC1C(O)C(NC)C2OC3(O)C(=O)CC(C)OC3OC2C1O (centres undefined) | > 100 | > 100 | > 100 | > 100 | > 100 | > 100 | > 100 | > 100 | > 100 | > 100 | > 100 |  |  |  |  |  |  |  | 
21 | CN(C)CC1CCCC(CN2CCCCC2)C1=O (centres undefined) | 4.85 | 31.1 | 3.73 | 27.5 | 43.1 | 32.5 | 14.6 | 59 | > 100 | 6.07 | 0.204 | > 71.3 |  |  |  |  |  |  | 
22 | CN(C)CCCNC(=O)c1cc(NC(=O)c2cc(NS(=O)(=O)c3ccc4c(c3)C(=O)c3ccccc3C4=O)cn2C)cn1C | > 100 | > 100 | > 100 | > 100 | > 100 | > 100 | > 100 |  | > 100 | > 100 | > 100 | > 100 |  |  |  |  |  |  | 
23 | Cc1cc(S(=O)(=O)NC(=C(C#N)C#N)[n+]2ccc(N(C)C)cc2)c([S-])cc1Cl | > 100 | > 100 | > 100 | > 100 | > 100 | > 100 | > 100 | > 100 | > 100 | > 100 | > 100 | > 100 |  |  |  |  |  |  | 
24 | Cc1ccccc1[P+](C)(c1ccccc1C)c1ccccc1C | 12.9 | 21 |  |  | 35.7 | > 100 | 58.8 | 55 |  | 93.7 | 21.6 | 49.9 |  |  |  |  |  |  | 
25 | C=C1C(=O)OC2/C=C(\C)C3OC3/C=C(/C(=O)OC)C(O)C(OC(=O)C3(C)OC3C)C12 (centres undefined) |  |  | 4.97 |  | 32.2 |  |  |  | 3.05 | 3.26 | 0.6 | 19.6 |  |  |  |  |  |  | 
26 | CC(N)C(=O)OCN1C(=O)C2C3C=CC(C2C1=O)C1C2C(=O)N(COC(=O)C(C)N)C(=O)C2C31 (centres undefined) |  |  | > 100 |  | > 100 |  |  |  | 29.3 | 37.6 |  |  |  |  |  |  |  |  | 
27 | Cc1nc2c(O)cc3c4c(=O)n(C)c(=O)n(C)c4n(Cc4ccccc4)c3c2nc1C |  | 33.9 |  | 34.2 | 55.3 | > 100 | 74.9 | 80.1 | 57.6 | 32.8 |  | 81.7 |  |  |  |  |  |  | 
